# Results reported in patent US9469615B2, “Quinoxalines and AZA-quinoxalines as CRTH2 receptor modulators” (Merck Sharp & Dohme Corp., priority 2010, dated 2016).
# Target: T1, hCRTH2 (Homo sapiens, UniProt Q9Y5Y4)
# T1 construct: expressed in transfected cells; host or cells: HEK (human embryonic kidney) cells expressing hCRTH2; membrane preparation
# T1 sequence (Q9Y5Y4 1-395): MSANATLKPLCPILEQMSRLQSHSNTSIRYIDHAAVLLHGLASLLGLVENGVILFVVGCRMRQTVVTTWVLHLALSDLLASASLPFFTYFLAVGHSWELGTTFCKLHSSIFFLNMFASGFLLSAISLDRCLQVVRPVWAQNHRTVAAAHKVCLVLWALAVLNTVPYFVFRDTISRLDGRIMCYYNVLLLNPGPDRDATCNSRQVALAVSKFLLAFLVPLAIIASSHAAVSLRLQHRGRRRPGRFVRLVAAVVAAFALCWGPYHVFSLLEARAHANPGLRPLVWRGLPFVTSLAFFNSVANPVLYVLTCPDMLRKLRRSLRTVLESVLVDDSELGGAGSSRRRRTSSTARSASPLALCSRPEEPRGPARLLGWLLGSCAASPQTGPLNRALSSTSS
# Assay: Radioligand binding assay ([3H]PGD2 competition, HEK-hCRTH2 membranes)
# Settings: [3H]PGD2 binding, rated A-E (Table A)
# Outline: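 Competition binding with 3.0 nM [3H]PGD2 and 8-20 μg HEK-hCRTH2 membrane protein in 50 mM Tris-HCl pH 7.4, 1 mM EDTA, 2 mM MnCl2, 1% Me2SO, 60 min at room temperature. Nonspecific binding defined with 10 μM PGD2; bound radioactivity counted after filtration.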
row,Ki [nM],SMILES
1,2.1 to 20,"O=C(O)CCCCc1nc2cc(C(=O)N3CC=C(c4ccccc4)CC3)ccc2nc1-c1ccccc1 [compound 116, 7-(4-phenyl-1,2,3,6-tetrahydropyridine-1-carbonyl)-3-phenyl-2-quinoxalinepentanoic acid]"
2,0.1 to 2,O=C(O)CCCCc1nc2cc(C(=O)N[C@@H](c3ccc(Cl)cc3)C(F)(F)F)ccc2nc1-c1ccc(Cl)cc1 [16W]
3,0.1 to 2,"O=C(O)CCCCc1nc2cc(C(=O)NC3CCCc4ccccc43)ccc2nc1-c1ccc(Cl)cc1 (stereo not shown) [16Ai, 3-(4-chlorophenyl)-7-[[(1,2,3,4-tetrahydro-1-naphthalenyl)amino]carbonyl]-2-quinoxalinepentanoic acid]"
4,0.1 to 2,"O=C(O)CCCCc1nc2cc(C(=O)NC3Cc4ccccc4C3)ccc2nc1-c1ccc(F)cc1 [compound 103, 7-[[(2,3-dihydro-1H-inden-2-yl)amino]carbonyl]-3-(4-fluorophenyl)-2-quinoxalinepentanoic acid]"
5,2.1 to 20,"O=C(O)CCCCc1nc2cc(C(=O)N3CC(c4nc5ccccc5[nH]4)C3)ccc2nc1-c1ccc(F)cc1 [compound 31, 5-(7-(3-(1H-benzo[d]imidazol-2-yl)azetidine-1-carbonyl)-3-(4-fluorophenyl)quinoxalin-2-yl)pentanoic acid]"
6,0.1 to 2,"O=C(O)CCCCc1nc2cc(C(=O)N3CC(c4cccc(Cl)c4)C3)ccc2nc1-c1ccccc1 [compound 253, 7-[[3-(3-chlorophenyl)-1-azetidinyl]carbonyl]-3-phenyl-2-quinoxalinepentanoic acid]"
7,0.1 to 2,"O=C(O)CCCCc1nc2cc(C(=O)N3CCC[C@@H](c4ccccc4)C3)ccc2nc1-c1ccc(Cl)cc1 [16o, 3-(4-chlorophenyl)-7-[(3(S)-phenyl-1-piperidinyl)carbonyl]-2-quinoxalinepentanoic acid]"
8,2.1 to 20,"O=C(O)CCCCc1nc2cc(C(=O)N3CCOCC3)ccc2nc1-c1ccc(Cl)cc1 [compound 177, 3-(4-chlorophenyl)-7-(4-morpholinylcarbonyl)-2-quinoxalinepentanoic acid]"
9,0.1 to 2,"O=C(O)CCCCc1nc2cc(C(=O)NCc3ccccc3)ccc2nc1-c1ccc(Cl)cc1 [16G, 3-(4-chlorophenyl)-7-[[(phenylmethyl)amino]car-bonyl]-2-quinoxalinepentanoic acid]"
10,2.1 to 20,"O=C(O)CCCCc1nc2cc(C(=O)N3CCC4(CC3)COc3ccccc34)ccc2nc1-c1ccccc1 [compound 120, 3-phenyl-7-(spiro[benzofuran-3(2H),4′-piperidin]-1′-ylcarbonyl)-2-quinoxalinepentanoic acid]"
11,0.1 to 2,"O=C(O)CCCCc1nc2cc(C(=O)N3CCC(c4ccccc4)CC3)ccc2nc1-c1ccccc1 [15Ai, 5-{3-phenyl-7-[(4-phenylpiperidin-1-yl)carbonyl]quinoxalin-2-yl}pentanoic acid]"
12,2.1 to 20,"O=C(O)CCOCc1nc2cc(C(=O)N3CCC(c4ccccc4)CC3)ccc2nc1-c1ccc(Cl)cc1 [compound 29, 3-((3-(4-chlorophenyl)-7-(4-phenylpiperidine-1-carbonyl)quinoxalin-2-yl)methoxy)propanoic acid]"
13,2.1 to 20,"C[C@@H](c1ccc(F)cc1)N(C)C(=O)c1ccc2nc(-c3ccccc3)c(CCCCC(=O)O)nc2c1 [compound 237, 7-[[[1(S)-(4-fluorophenyl)ethyl]methylamino]carbonyl]-3-phenyl-2-quinoxalinepentanoic acid]"
14,0.1 to 2,"O=C(O)CCCCc1nc2cc(C(=O)N3CCC(O)(c4ccc(Cl)cc4)CC3)ccc2nc1-c1ccc(F)cc1 [compound 134, 7-[[4-(4-chlorophenyl)-4-hydroxy-1-piperidinyl]carbonyl]-3-(4-fluorophenyl)-2-quinoxalinepentanoic acid]"
15,2.1 to 20,"O=C(O)CCCCc1nc2cc(C(=O)NCc3ccc(OC(F)(F)F)cc3)ccc2nc1-c1ccc(F)cc1 [compound 107, 3-(4-fluorophenyl)-7-[[[[4-(trifluoromethoxy)phenyl]methyl]amino]carbonyl]-2-quinoxalinepentanoic acid]"
16,2.1 to 20,"O=C(O)CCCCc1nc2cc(C(=O)NCc3ccc(F)cc3)ccc2nc1-c1ccc(F)cc1 [compound 109, 3-(4-fluorophenyl)-7-[[[(4-fluorophenyl)methyl]amino]carbonyl]-2-quinoxalinepentanoic acid]"

# Same assay, conditions: [3H]PGD2 binding, values in text
row,Ki [nM],SMILES
1,0.4,O=C(O)CCCCc1nc2cc(C(=O)N[C@@H](c3ccc(Cl)cc3)C(F)(F)F)ccc2nc1-c1ccc(Cl)cc1 [16W]
2,1.9,"O=C(O)CCCCc1nc2cc(C(=O)N3CCC(c4ccccc4)CC3)ccc2nc1-c1ccccc1 [15Ai, 5-{3-phenyl-7-[(4-phenylpiperidin-1-yl)carbonyl]quinoxalin-2-yl}pentanoic acid]"

# Same assay, conditions: [3H]PGD2 competition, Table B
row,Ki [nM],SMILES
1,20.1 to 200,"C[C@@H](NC(=O)c1ccc2nc(-c3ccc(F)cc3)c(CCCC(F)(F)C(=O)O)nc2c1)c1ccc(F)cc1 [compound 487, (R)-2,2-difluoro-5-(3-(4-fluorophenyl)-7-((1-(4-fluorophenyl)ethyl)carbamoyl)quinoxalin-2-yl) pentanoic acid]"
2,2.1 to 20,"O=C(O)CCCCc1nc2cc(C(=O)N[C@H]3CCOc4cc(C(F)(F)F)ccc43)ccc2nc1-c1ccc(Cl)cc1 [compound 692, (S)-5-(3-(4-chlorophenyl)-7-((7-(trifluoromethyl)chroman-4-yl)carbamoyl)quinoxalin-2-yl)pentanoic acid]"
3,2.1 to 20,"O=C(O)CCCCc1nc2cc(C(=O)N3CCC(n4c(=O)[nH]c5ccccc54)CC3)ccc2nc1-c1ccc(Cl)cc1 [compound 626, 5-(3-(4-chlorophenyl)-7-(4-(2-oxo-2,3-dihydro-1H-benzo[d]imidazol-1-yl)piperidine-1-carbonyl)quinoxalin-2-yl)pentanoic acid]"
4,2.1 to 20,"O=C(O)CCCCc1nc2cc(C(=O)N3CCc4cc(F)ccc4C3)ccc2nc1-c1ccc(Cl)cc1 [compound 557, 5-(3-(4-chlorophenyl)-7-(6-fluoro-1,2,3,4-tetrahydroisoquinoline-2-carbonyl)quinoxalin-2-yl)pentanoic acid]"
5,20.1 to 200,"O=C(O)CCCCc1nc2cc(C(=O)N3CCN(Cc4ccncc4)CC3)ccc2nc1-c1ccc(Cl)cc1 [compound 682, 5-(3-(4-chlorophenyl)-7-(4-(pyridin-4-ylmethyl)piperazine-1-carbonyl)quinoxalin-2-yl)pentanoic acid]"
6,2.1 to 20,"O=C(O)CCCCc1nc2cc(C(=O)N[C@@H]3CCCCc4ccccc43)ccc2nc1-c1ccc(Cl)cc1 [compound 570, (R)-5-(3-(4-chlorophenyl)-7-((6,7,8,9-tetrahydro-5H-benzo[7]annulen-5-yl)carbamoyl)quinoxalin-2-yl)pentanoic acid]"
7,2.1 to 20,"O=C(O)CCCCc1nc2cc(C(=O)N3CCc4c([nH]c5ccccc45)C3)ccc2nc1-c1ccc(Cl)cc1 [compound 608, 5-(3-(4-chlorophenyl)-7-(2,3,4,9-tetrahydro-1H-pyrido[3,4-b]indole-2-carbonyl)quinoxalin-2-yl)pentanoic acid]"
8,20.1 to 200,"O=C(O)CCCCc1nc2cc(C(=O)N[C@@H]3c4ccccc4C[C@H]3O)ccc2nc1-c1ccc(F)cc1 [compound 510, 5-(3-(4-fluorophenyl)-7-(((1R,2R)-2-hydroxy-2,3-dihydro-1H-inden-1-yl)carbamoyl)quinoxalin-2-yl)pentanoic acid]"
9,2.1 to 20,"Cc1ccc([C@@]23C[C@@H]2CN(C(=O)c2ccc4nc(-c5ccc(Cl)cc5)c(CCCCC(=O)O)nc4c2)C3)cc1 [compound 285, 5-(3-(4-chlorophenyl)-7-((1R,5S)-1-(p-tolyl)-3 - azabicyclo[3.1.0]hexane-3-carbonyl)quinoxalin-2-yl)pentanoic acid]"
10,20.1 to 200,O=C(N[C@H](c1ccc(Cl)cc1)C(F)(F)F)c1ccc2nc(-c3ccc(Cl)cc3)c(CC3CCC(C(=O)O)C3)nc2c1 (stereo partly shown) [compound 401]
11,20.1 to 200,"O=C(O)CCCCc1nc2cc(C(=O)N3CCc4oc(C5CC5)nc4C3)ccc2nc1-c1ccc(Cl)cc1 [compound 347, 5-(3-(4-chlorophenyl)-7-(2-cyclopropyl-4,5,6,7-tetrahydrooxazolo[4,5-c]pyridine-5-carbonyl)quinoxalin-2-yl)pentanoic acid]"
12,2.1 to 20,"COc1ccccc1C1CCN(C(=O)c2ccc3nc(-c4ccc(F)cc4)c(CCCCC(=O)O)nc3c2)CC1 [compound 361, 5-(3-(4-fluorophenyl)-7-(4-(2-methoxyphenyl)piperidine-1-carbonyl)quinoxalin-2-yl)pentanoic acid]"
13,2.1 to 20,"CC(CCCc1nc2cc(C(=O)N[C@H](C)c3ccc(Cl)cc3)ccc2nc1-c1ccc(F)cc1)C(=O)O (stereo partly drawn) [compound 427, 5-(7-(((R)-1-(4-chlorophenyl)ethyl)carbamoyl)-3-(4-fluorophenyl)quinoxalin-2-yl)-2-methylpentanoic acid]"
14,2.1 to 20,"O=C(O)CCCCc1nc2cc(C(=O)N3CCN(c4ccc(F)cc4)CC3)ccc2nc1-c1ccccc1 [compound 351, 5-(7-(4-(4-fluorophenyl)piperazine-1-carbonyl)-3-phenylquinoxalin-2-yl)pentanoic acid]"
15,2.1 to 20,"O=C(O)CCCCc1nc2cc(C(=O)N3C[C@H]4CC[C@@H]3CN4Cc3ccccc3)ccc2nc1-c1ccc(Cl)cc1 [compound 698, 5-(7-((1R,4R)-5-benzyl-2,5-diazabicyc1o[2.2.2]octane-2-carbonyl)-3-(4-chlorophenyl)quinoxalin-2-yl)pentanoic acid]"
16,2.1 to 20,"CC[C@@H](NC(=O)c1ccc2nc(-c3ccc(Cl)cc3)c(CCCCC(=O)O)nc2c1)c1ccc(F)cc1 [compound 376, (R)-5-(3-(4-chlorophenyl)-7-((1-(4-fluorophenyl)propyl)carbamoyl)quinoxalin-2-yl)pentanoic acid]"
